Read-outs that look alike come from different tables or passages of the source.

For assay [1], the target named is HA-GST-Rheb (GTP-γ-S loaded) activating mTORC1 (Homo sapiens (Human), UniProt Q15382). Put plainly: Rheb-dependent in vitro kinase assay (Rheb-IVK; LanthaScreen or Western readout). Type of assay: biochemical.
The subject of a further assay is S473pAkt in MCF-7 cells. Put plainly: Cell-based AlphaLISA assay, pAkt (S473).
Another assay deals with T389pS6K1 in MCF-7 cells. Put plainly: Cell-based AlphaLISA assay, pS6K1 (Thr389).
Another assay addresses Rheb (Homo sapiens (Human), UniProt Q15382). As to the kind of experiment: Affinity Selection Mass Spectrometry (ASMS). The following applies: affinity (R3/R0) in Affinity Selection Mass Spectrometry assay. It is filed as binding. In outline:
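Affinity selection used 2 μM compound with 60 μM Rheb and 180 μM GDP for 30 min at room temperature. After 10 kDa ultrafiltration washes, protein was denatured in MeCN and bound compound quantified by C18 UPLC with Q-TOF MS, against a no-protein control.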

Assay [2] concerns mTORC1 and mTORC2 signaling in PC3 cells. As to the kind of experiment: Long-term treatment vs. rapamycin in PC3 cells, Western blot. Type of assay: cell-based. Conditions: replete, 2, 5, 18 or 24 hrs, NR1 30 μM, rapamycin 100 nM.
Setting [3] is: LanthaScreen variation, Terbium labeled T46p4E-BP1 specific antibody, read-out: IC50 in the Rheb-IVK.
The mark [4] stands for this setting: Rheb-dependent in vitro kinase assay, read-out: IVK IC50.

Chain of HA-GST-Rheb (GTP-γ-S loaded) activating mTORC1 (Q15382 1-181): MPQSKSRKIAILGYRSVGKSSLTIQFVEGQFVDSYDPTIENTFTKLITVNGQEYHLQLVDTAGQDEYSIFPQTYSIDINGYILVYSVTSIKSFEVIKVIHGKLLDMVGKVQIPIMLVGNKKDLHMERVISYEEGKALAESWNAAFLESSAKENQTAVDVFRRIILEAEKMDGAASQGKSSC
Chain of Rheb (Q15382 1-169 limits assumed): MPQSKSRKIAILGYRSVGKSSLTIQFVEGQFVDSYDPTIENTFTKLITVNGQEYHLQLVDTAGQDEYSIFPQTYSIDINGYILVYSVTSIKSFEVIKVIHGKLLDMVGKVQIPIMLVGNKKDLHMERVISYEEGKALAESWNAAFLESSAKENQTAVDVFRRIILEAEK

Consider `CCC(=O)N1CCN(c2ccc(-n3c(=O)ccc4cnc5ccc(-c6cnc7ccccc7c6)cc5c43)cc2C(F)(F)F)CC1` [Torin-1, reference compound], for which the IC50 in assay [1] (setting [3]) was roughly 0.002 µM; with S473pAkt in MCF-7 cells, roughly 0.005 µM; in the assay on T389pS6K1 in MCF-7 cells, roughly 0.001 µM.

As to `CN1CCC(CCNC(=O)c2cc3c(Sc4ccc(Cl)cc4Cl)cc(Cl)cc3[nH]2)CC1` [I-106, 6-chloro-4-(2,4-dichlorophenylthio)-N-(2-(1-methylpiperidin-4-yl)ethyl)-1H-indole-2-carboxamide], the IC50 is less than 10 µM in assay [1] (setting [4]) and less than 10 µM in the assay with T389pS6K1 in MCF-7 cells (Homo sapiens, MCF7). Moreover, the “ASMS (R3/R0)” value on Rheb was “B (an affinity (R3/R0) between 100% and 20%)”.

For the molecule `CN(C)C(=O)c1ccc(Cn2c(C(=O)O)cc3c(Br)cc(Sc4ccc(Cl)c(Cl)c4)cc32)cc1` [I-102, 4-Bromo-6-(3,4-dichlorophenylthio)-1-(4-(dimethylcarbamoyl)benzyl)-1H-indole-2-carboxylic acid], the IC50 is roughly 2.1 µM in assay [1] (setting [3]) and less than 10 µM in assay [1] (setting [4]). The “ASMS (R3/R0)” value on Rheb was “B (an affinity (R3/R0) between 100% and 20%)”. The “inhibition of pAKT” value in the assay on S473pAkt in MCF-7 cells is “did not inhibit pAKT”.

Regarding `CN1CCC(CCNC(=O)c2cc3c(Sc4ccc(Cl)cc4)cc(Cl)cc3[nH]2)CC1` [I-142, 6-chloro-4-(4-chlorophenylthio)-N-(2-(1-methylpiperidin-4-yl)ethyl)-1H-indole-2-carboxamide], the IC50 was less than 10 µM in assay [1] (setting [4]) and less than 10 µM with T389pS6K1 in MCF-7 cells (Homo sapiens, MCF7). The “ASMS (R3/R0)” value at Rheb is “A (an affinity (R3/R0)>100%)”.

On to `CN1CCN(c2ccc(NC(=O)c3cc4c(Sc5ccc(Cl)cc5)cc(Cl)cc4[nH]3)cc2F)CC1` [I-141, 6-chloro-4-(4-chlorophenylthio)-N-(3-fluoro-4-(4-methylpiperazin-1-yl)phenyl)-1H-indole-2-carboxamide], for which the IC50 in assay [1] (setting [4]) was less than 10 µM; in the assay on T389pS6K1 in MCF-7 cells (Homo sapiens, MCF7) it was less than 10 µM. Moreover, at Rheb, the “ASMS (R3/R0)” value was “B (an affinity (R3/R0) between 100% and 20%)”.

With `CO[C@H]1C[C@@H]2CC[C@@H](C)[C@@](O)(O2)C(=O)C(=O)N2CCCC[C@H]2C(=O)O[C@H]([C@H](C)C[C@@H]2CC[C@@H](O)[C@H](OC)C2)CC(=O)[C@H](C)/C=C(\C)[C@@H](O)[C@@H](OC)C(=O)[C@H](C)C[C@H](C)/C=C/C=C/C=C/1C` [rapamycin, reference compound], in assay [1] (LanthaScreen variation, no FKBP12 present), the “inhibition of the Rheb-IVK” value is “did not inhibit the Rheb-IVK”. Also, the “mTORC1 versus mTORC2 signaling with chronic exposure (T389pS6K1, S473pAkt)” value in assay [2] is “inhibits mTORC2 signaling with chronic exposure”.

As for `CN1CCC(CNC(=O)c2cc3c(Sc4ccc(Cl)cc4Cl)cc(Cl)cc3[nH]2)CC1` [I-120, 6-chloro-4-(2,4-dichlorophenylthio)-N-((1-methylpiperidin-4-yl)methyl)-1H-indole-2-carboxamide], the IC50 in assay [1] (setting [4]) was less than 10 µM; with T389pS6K1 in MCF-7 cells (Homo sapiens, MCF7), less than 10 µM. Besides, the “ASMS (R3/R0)” value on Rheb is “B (an affinity (R3/R0) between 100% and 20%)”.

As for `CN1CCC(NC(=O)c2cc3c(Sc4ccc(Cl)cc4)cc(Cl)cc3[nH]2)C1` (stereo not drawn) [I-79, 6-chloro-4-(4-chlorophenylthio)-N-(1-methylpyrrolidin-3-yl)-1H-indole-2-carboxamide], the IC50 in assay [1] (setting [4]) was less than 10 µM; in the assay with T389pS6K1 in MCF-7 cells (Homo sapiens, MCF7), less than 10 µM. Also, at Rheb, the “ASMS (R3/R0)” value was “B (an affinity (R3/R0) between 100% and 20%)”.

As to `CN1CCN(c2cccc(NC(=O)c3cc4c(-c5cc(Cl)cc(Cl)c5)cc(Cl)cc4[nH]3)c2)CC1` [I-30, 6-chloro-4-(3,5-dichlorophenyl)-N-(3-(4-methylpiperazin-1-yl)phenyl)-1H-indole-2-carboxamide], the IC50 in assay [1] (setting [4]) is less than 10 µM; in the assay on T389pS6K1 in MCF-7 cells (Homo sapiens, MCF7), less than 10 µM. Besides, the “ASMS (R3/R0)” value on Rheb is listed as “A (an affinity (R3/R0)>100%)”.

Regarding `OCc1nc2c(OCC3CC=CC3)c(Cl)c(Cl)cc2[nH]1` [I-377], in assay [1] (setting [4]), the IC50 was greater than 100 µM. Further, the “ASMS (R3/R0)” value at Rheb was “B (an affinity (R3/R0) between 100% and 20%)”.

`Cc1ccc(Oc2cc(Cl)cc3[nH]c(C(=O)O)cc23)cc1C(F)(F)F` [I-81, 6-chloro-4-(4-methyl-3-(trifluoromethyl)phenoxy)-1H-indole-2-carboxylic acid]: in assay [1] (setting [4]), the IC50 was 10 to 100 µM. Besides, the “ASMS (R3/R0)” value on Rheb is “B (an affinity (R3/R0) between 100% and 20%)”.

Consider `CN1CCC(CNC(=O)c2cc3c(Sc4ccc(Cl)cc4Cl)cc(Cl)c(Cl)c3[nH]2)CC1` [I-35, 6,7-dichloro-4-(2,4-dichlorophenylthio)-N-((1-methylpiperidin-4-yl)methyl)-1H-indole-2-carboxamide], for which the IC50 in assay [1] (setting [4]) is less than 10 µM. The “ASMS (R3/R0)” value on Rheb was “A (an affinity (R3/R0)>100%)”.

Take `C=Cc1nc2c(OCC3CCCCC3)c(Cl)c(Cl)cc2[nH]1` [I-345]: in assay [1] (setting [4]), the IC50 was greater than 100 µM. In addition, the “ASMS (R3/R0)” value at Rheb was “B (an affinity (R3/R0) between 100% and 20%)”.

For the molecule `OCc1nc2c(OC[C@H]3CCCC[C@H]3O)c(Cl)c(Cl)cc2[nH]1` (single isomer, unassigned) [I-389], the IC50 in assay [1] (setting [4]) is greater than 100 µM. In addition, at Rheb, the “ASMS (R3/R0)” value was “C (an affinity (R3/R0)<20%)”.

`NC(=O)c1cc2c(Oc3ccccc3)cc(Cl)cc2[nH]1` [I-169, 6-chloro-4-phenoxy-1H-indole-2-carboxamide]: in assay [1] (setting [4]), the IC50 was in the range of 10 to 100 µM. The “ASMS (R3/R0)” value at Rheb was “B (an affinity (R3/R0) between 100% and 20%)”.

With `OCc1cc2c(Br)cc(Oc3ccccc3)cc2[nH]1` [I-290, (4-Bromo-6-phenoxy-1H-indol-2-yl)methanol], in assay [1] (setting [4]), the IC50 is 10 to 100 µM. Moreover, the “ASMS (R3/R0)” value at Rheb was “B (an affinity (R3/R0) between 100% and 20%)”.

Consider `CN(C)C(=O)c1ccc(Cn2c(C(=O)O)cc3c(Br)cc(Sc4ccc(Oc5ccccc5)cc4)cc32)cc1` [I-15, 4-bromo-1-(4-(dimethylcarbamoyl)benzyl)-6-(4-phenoxyphenyl-thio)-1H-indole-2-carboxylic acid], for which, in assay [1] (setting [4]), the IC50 was less than 10 µM. Besides, the “ASMS (R3/R0)” value on Rheb was “B (an affinity (R3/R0) between 100% and 20%)”.

As for `O=C(NCCn1ccc2ccccc21)c1cc2c(Sc3ccc(Cl)cc3)cc(Cl)cc2[nH]1` [I-131], the IC50 in assay [1] (setting [4]) is greater than 100 µM. At Rheb, the “ASMS (R3/R0)” value was “B (an affinity (R3/R0) between 100% and 20%)”.

Take `CN1CCC[C@@H]1CNC(=O)c1cc2c(Br)cc(Sc3ccc(Cl)c(Cl)c3)cc2[nH]1` [I-57]: in assay [1] (setting [4]), the IC50 was greater than 100 µM. The “ASMS (R3/R0)” value at Rheb is given as “A (an affinity (R3/R0)>100%)”.

For the molecule `CC(C)(C)OC(=O)NCc1nc2cc(OCc3ccc(Cl)cc3)c(Cl)c(Cl)c2[nH]1` [I-350], the IC50 in assay [1] (setting [4]) was greater than 100 µM. At Rheb, the “ASMS (R3/R0)” value was “B (an affinity (R3/R0) between 100% and 20%)”.

Consider `CC(C)NC(=O)c1ccc(Cn2c(C(=O)O)cc3c(Br)cc(Sc4ccc(Cl)c(Cl)c4)cc32)cc1` [I-101], for which the IC50 in assay [1] (setting [4]) was greater than 100 µM. Also, the “ASMS (R3/R0)” value at Rheb is “B (an affinity (R3/R0) between 100% and 20%)”.

Regarding `O=C(O)c1cc2c(-c3ccccc3)cc(Cl)cc2[nH]1` [I-54, 6-chloro-4-phenyl-1H-indole-2-carboxylic acid], the IC50 in assay [1] (setting [4]) is 100 to 300 µM. The “ASMS (R3/R0)” value at Rheb is “C (an affinity (R3/R0)<20%)”.

On to `CN(C)C(=O)c1ccc(Cn2c(C(=O)O)cc3c(Br)cc(Sc4ccc(C(F)(F)F)cc4)cc32)cc1` [I-22], for which the IC50 in assay [1] (setting [4]) was greater than 100 µM. On Rheb, the “ASMS (R3/R0)” value was “B (an affinity (R3/R0) between 100% and 20%)”.

As for `Nc1ccc(-c2ccc(Cn3c(C(=O)O)cc4c(Sc5ccc(Cl)cc5Cl)cc(Cl)cc43)cc2)cc1` [I-78, 1-((4′-aminobiphenyl-4-yl)methyl)-6-chloro-4-(2,4-dichlorophenylthio)-1H-indole-2-carboxylic acid], the IC50 in assay [1] (setting [4]) was less than 10 µM. Further, on Rheb, the “ASMS (R3/R0)” value was “B (an affinity (R3/R0) between 100% and 20%)”.
